According to paper PMC3687523 (Biochemical pharmacology, 2013):

Columns and labels:
rat brain CYP2D [1] = tested on: rat brain CYP2D
rat brain CYP2D [2] = conditions: 20 μg i.c.v. propranolol
[3] = 20 μg i.c.v. propranolol, 30 mg/kg s.c. codeine
[4] = 30 min after 30 mg/kg s.c. codeine

Structure (SMILES): CC(C)NCC(O)COc1cccc2ccccc12 (centres unmarked) [propranolol]
- percentage of maximal analgesic effect (%MPE) after codeine, compared to vehicle pretreatment (rat brain CYP2D [1]; 20 μg i.c.v. propranolol 24 h before 30 mg/kg s.c. codeine, at 15, 20, 30 and 40 min): significantly lower
- area under the analgesia-time curve (AUC) 0-30 min after codeine, compared to vehicle pretreatment (rat brain CYP2D [1]; [3]): significantly lower
- area under the analgesia-time curve (AUC) 60-120 min after codeine, compared to vehicle pretreatment (rat brain CYP2D [1]; [3]): Neither inhibitor resulted in lower AUC
- AUC of analgesia after morphine, compared to vehicle pretreatment (rat brain CYP2D [1]; 40 μg i.c.v. propranolol, 5 mg/kg s.c. morphine, all time periods): did not result in significantly different
- %MPE after morphine, compared to vehicle pretreatment (rat brain CYP2D [1]; 40 μg i.c.v. propranolol, 5 mg/kg s.c. morphine, all time points): did not result in significantly different %MPE
- brain morphine concentration, compared to vehicle-pretreated rats (rat brain CYP2D [2]; [4]): significantly lower
- plasma morphine concentration, compared to vehicle-pretreated rats (rat brain CYP2D [2]; [4]): equal
- brain morphine concentrations, propranolol- vs vehicle-pretreated rats (rat brain CYP2D [2]; at both 60 and 90 min after 30 mg/kg s.c. codeine): no significant difference
